Data taken from US20240352145A1, “EFFICACY OF ANTI-TROP-2-SN-38 ANTIBODY DRUG CONJUGATES FOR THERAPY OF TUMORS RELAPSED/REFRACTORY TO CHECKPOINT INHIBITORS” (Immunomedics, Inc., priority 2016, published 2024).
Values joined by “and” are separate entries in the source; they are usually repeats but may differ in a detail not shown here. Identical values can stand only once.

Legend:
[1] = tested on: Capan-1; assay: In vitro cytotoxicity, Capan-1
Excerpt: Cell lines, antibodies, and chemotherapeutics—All human cancer cell lines used in this study were purchased from the American Type Culture Collection.

[2] = tested on: human pancreatic adenocarcinoma xenograft model (BxPC-3); assay: Clinically-relevant dosing schemes, BxPC-3 xenograft; type: in vivo, mouse; conditions: for TTP: untreated 5.0±2.3
Excerpt: In Vivo Therapeutic Studies—NCr female athymic nude (nu/nu) mice, 4-8 weeks old, were purchased from Taconic Farms (Germantown, NY). NCI-N87 gastric tumor xenografts were established by harvesting cells from tissue culture and making a final cell suspension 1:1 in matrigel (BD Bioscience; San Jose, CA), with each mouse receiving a total of 1×10^7 cells s.c. in the right flank. For BxPC-3. xenografts of 1 g were harvested, and a tumor suspension made in HBSS to a concentration of 40% tumor w/v. This suspension was mixed 1:1 with matrigel for a final tumor suspension of 20% w/v. […] For IHC, tumors were allowed to grow to approximately 0.5 cm^3 before the mice were euthanized and the tumors removed, formalin-fixed and paraffin-embedded. For therapy studies, mice were randomized into treatment groups and therapy begun when tumor volumes were approximately 0.25 cm^3.
Mice were euthanized and deemed to have succumbed to disease once tumors grew to greater than 1.0 cm^3 in size. […] Time to progression (TTP) was determined as time post-therapy initiation when the tumor grew more than 20% in size from its nadir.
A human dose of 8 mg/kg translates to a murine dose of 98.4 mg/kg, or approximately 2 mg to a 20 g mouse.

[3] = tested on: metastatic epithelial tumors; assay: Phase I trial of sacituzumab govitecan (25 patients); type: in vivo, human
Method: The trial was designed as a standard 3+3 Phase I design, starting at a dose of 8 mg/kg per injection, with dosages given weekly for 2 weeks in a 3-week treatment cycle.
Prior to the start of each infusion, most patients received acetaminophen, anti-histamines (H1 and H2 blockers), and dexamethasone. Prophylactic use of antiemetics or anti-diarrheal medications was prohibited. Therapy consisted of 2 consecutive doses given on days 1 and 8 of a 3-week treatment cycle, with the intent to allow patients to continue treatment for up to 8 cycles (i.e., 16 treatments) unless there was unacceptable toxicity or progression. Patients showing disease stabilization or response after 8 cycles could continue treatments.
The maximum tolerated dose (MTD) was judged on the patient's tolerance to the first treatment cycle.

[4] = tested on: Capan-1 tumors; assay: Capan-1 xenograft therapy; type: in vivo, mouse; conditions: 0.2 mg/kg SN-38 twice weekly x 4 weeks
Method: NCr female athymic nude (nu/nu) mice, 4 to 8 weeks old, and male Swiss-Webster mice, 10 weeks old, were purchased from Taconic Farms. Tolerability studies were performed in Cynomolgus monkeys (Macaca fascicularis; 2.5-4 kg male and female) by SNBL USA, Ltd. Animals were implanted subcutaneously with different human cancer cell lines. Tumor volume (TV) was determined by measurements in 2 dimensions using calipers, with volumes defined as: L×w^2/2, where L is the longest dimension of the tumor and w is the shortest. […] This dosing frequency reflected a consideration of the conjugate's serum half-life […], to allow a more continuous exposure to the ADC.
Statistics—Growth curves are shown as percent change in initial TV over time. Statistical analysis of tumor growth was based on area under the curve (AUC). Profiles of individual tumor growth were obtained through linear-curve modeling. An f-test was employed to determine equality of variance between groups before statistical analysis of growth curves. A 2-tailed t-test was used to assess statistical significance between the various treatment groups and controls, except for the saline control, where a 1-tailed t-test was used (significance at P≤0.05). Statistical comparisons of AUC were performed only up to the time that the first animal within a group was euthanized due to progression.

[5] = tested on: metastatic PDC
[6] = tested on: gastric cancer; assay: Case, stage IV metastatic gastric cancer
[7] = tested on: Trop-2+ human gastric carcinoma xenografts (NCI-N87); assay: Effect of DAR on efficacy, NCI-N87 xenograft; type: in vivo, mouse; conditions: for median survival time (MST): 2 treatments 7 days apart, 0.5 mg
Excerpt: Effect of DAR on pharmacokinetics and anti-tumor efficacy in mice.

[8] = update of on-going trial, 17 TNBC patients

IMMU-132
IC50 [1]: 6.99 nM
anti-tumor effect vs untreated ([2]; all three dosing schemes of fractionated 2 mg): significant anti-tumor effect
TTP ([2]; eight doses of 0.25 mg): 31.7 ± 14.5 days
TTP ([2]; two doses of 1 mg (days 1 and 15)): 22.4 ± 10.1 days
Delay/adjustment 1st cycle, patients ([3]; 8 mg/kg, 7 patients treated): 1
Dose-limiting toxicity 1st cycle, patients ([3]; 8 mg/kg, 7 patients treated): 0
patients with grade-3 diarrhea ([3]; 10 mg/kg dose level): 1
Delay/adjustment 1st cycle, patients ([3]; 10 mg/kg, 6 patients treated): 0
Dose-limiting toxicity 1st cycle, patients ([3]; 10 mg/kg, 6 patients treated): 0
Delay/adjustment 1st cycle, patients ([3]; 12 mg/kg, 9 patients treated): 5
Dose-limiting toxicity 1st cycle, patients ([3]; 12 mg/kg, 9 patients treated, listed as sacituzumab govitecan): 0/9 and 0
Delay/adjustment 1st cycle, patients ([3]; 18 mg/kg, 3 patients treated): 2
median time to progression ([3]; 24 patients): 3.6 months
time to progression, range ([3]; 24 patients): 1-12.8 months
febrile neutropenia, patients ([3]; 25 patients): 2
long-term survival (15-20 months) ([3]; 25 patients): ~25%
patients with >30% reduction of target lesions ([3]; 25 patients): 12%
patients with SD ([3]; 25 patients): 60%
free SN-38 as share of total SN-38, average ([3]; 28 30-min serum samples from 7 patients, HPLC): 2.91±0.91%
infusion-related adverse events ([3]; 297 infusions over 2-3 h): no infusion-related adverse events
adverse event possibly related to treatment ([3]; GC patient #9, 1 dose of 10 mg/kg): grade 3 febrile neutropenia
progressed (PD) as best response, patients ([3]; RECIST 1.1): 7
partial responses, patients ([3]; RECIST 1.1, 25 patients): 3
stable disease as best response, patients ([3]; RECIST 1.1, 25 patients, listed as Sacituzumab govitecan): 15
stable disease as best response, patients ([3]; RECIST 1.1, 25 patients, listed as sacituzumab govitecan): Fifteen
tumor shrinkage ([3]; SCLC patient who failed prior topoisomerase I inhibitor therapy): 38%
median time to progression ([3]; advanced pancreatic ductal cancer, N=7): 2.9 months
tumor shrinkage ([3]; colon cancer patient who failed prior topoisomerase I inhibitor therapy): 13%
intact conjugate in trough serum samples ([3]; drawn immediately before next dose): no sacituzumab govitecan could be detected
antibody response to hRS7 IgG or SN-38 ([3]; multiple cycles for up to 12 months): no antibody response to the hRS7 IgG or SN-38 was detected
reduction in target lesions ([3]; patient 10, CRC, 5 doses of 10 mg/kg): 23%
maximum reduction in target lesions ([3]; patient 10, CRC, after 18 doses): 28%
plasma CEA ([3]; patient 10, CRC, baseline 38.5 ng/mL): 1.6 ng/mL
time to progression ([3]; patient 18, TNBC): 45 weeks
reduction in target lesions ([3]; patient 18, TNBC, after 3 doses): 13%
reduction in target lesions ([3]; patient 18, TNBC, after 16 doses): 19%
period until progression ([3]; patient 20, HRPC, 34 treatments): 12.7 months
period of SD ([3]; patient 25, esophageal cancer, 18 then 13.5 mg/kg): 30 weeks
period of disease stabilization ([3]; patient #11, PDC): 15 weeks
CA19-9 serum titer ([3]; patient #11, PDC, 10 mg/kg, after 8 doses, baseline 5880): 2840 units/mL
SN-38 bound to the IgG ([3]; patient #25, 13.5 mg/kg): 96.8%
free SN-38, average ([3]; patient #25, 13.5 mg/kg): 105.4 ± 47.7 ng/mL
free SN-38G as share of total SN-38+SN-38G ([3]; patient #25, 13.5 mg/kg): 11.6%
free SN-38G, average ([3]; patient #25, 13.5 mg/kg): 13.9 ± 4.1 ng/mL
total SN-38, average ([3]; patient #25, 13.5 mg/kg, 11 peak acid-hydrolyzed samples): 3309.8 ± 601.8 ng/mL
Free SN-38G ([3]; patient #25, 18 mg/kg): 26.2 ng/mL
free SN-38 (non-hydrolyzed sample) ([3]; patient #25, 18 mg/kg): 155.2 ng/mL
free SN-38G as share of total unbound SN-38+SN-38G ([3]; patient #25, 18 mg/kg): 14.4%
free SN-38 as share of total ([3]; patient #25, 18 mg/kg): 3.0%
total SN-38 (acid-hydrolyzed sample) ([3]; patient #25, 18 mg/kg): 5,089 ng/mL
SN-38G as share of free SN-38 levels in serum ([3]; patients): 20-40%
median time to progression ([3]; patients with SD or PR (N=18)): 4.1 months
time to progression, range ([3]; patients with SD or PR (N=18)): 2.6-12.8 months
patients with response or disease stabilization ([3]; patients with prior topoisomerase I inhibitor): 7 of 9
SN-38 in serum bound to IgG ([3]; peak samples, 30 min after infusion): > 96%
time to progression from onset of therapy ([3]; responder with SCLC): 2.9 months
time to progression from onset of therapy ([3]; responder with TNBC): 4.3 months
time to progression from onset of therapy ([3]; responder with colon cancer): 7.1 months
reduction of target lesions ([3]; two of nine patients with prior topoisomerase-I inhibitor therapy, listed as sacituzumab govitecan): 28% and 38%
clinical benefit rate (PR+SD≥6 months) [3, 8]: 46%
overall response rate (PR) [3, 8]: 29%
tumor growth vs untreated and hA20-CL2A-SN-38 [4]: significantly inhibited tumor growth
tumor-free mice at end of study ([4]; day 140): 50%
patients with long-term stable disease ([5]; 8/13 PDC patients): 62%
median TTP, CT assessable patients ([5]; 8.0 weeks estimated from last prior therapy): 12.7 wks
stable disease, number of patients ([5]; 13 assessable patients): 8
response ([5]; case): stable disease by CT RECIST criteria
CA19-9 after treatment ([5]; case, from 15885 U/mL): 4418 U/mL
Alopecia (Grades 1-2), patients ([5]; in vivo): 5 of 9
Grade 3-4 nausea or vomiting ([5]; in vivo): no patient
Phase 2 dose ([5]; in vivo): 8 to 10 mg/kg
median TTP, all 14 patients ([5]; in vivo): 11.9 wks
neutropenia ≥G3 ([5]; in vivo): 33%
patients with Grade 3 diarrhea ([5]; in vivo): Two
progressive disease by RECIST, patients ([5]; in vivo): Five
maximum decline in CA19-9 ([5]; person, 8 mg/kg days 1 and 8 of 21 day cycle): 72%
tolerability ([6]; 10 mg/kg): some mild nausea and diarrhea
disease reduction from baseline by RECIST ([6]; after another 5 courses): about 35%
median survival time (MST) ([7]; DAR 1.64): 21 days
median survival time (MST) ([7]; DAR 3.28 (printed 3.38)): 25 days
tumor growth inhibition (AUC) ([7]; DAR 6.89, 0.5 mg twice weekly for two weeks vs DAR 3.28, 1 mg): inhibited tumor growth significantly more than tumor-bearing animals treated with the 3.28 DAR conjugate
median survival time (MST) ([7]; DAR 6.89): 39 days
